IC50 data for 5 compounds are collected here from patent publication US20260022142A1, “MACROCYCLIC IMMUNOMODULATORS” (Bristol-Myers Squibb Company, priority 2022, published 2026).

Bridge positions count the residues as written; N and C are the ends. Square brackets hold non-standard residues; d marks the D form. Peptide text beside a SMILES is read from it. * marks the point of attachment. Bip = N[C@@H](Cc1ccc(-c2ccccc2)cc1)C(=O)O; Phe(3-Me) = Cc1cccc(C[C@H](N)C(=O)O)c1; Cha = N[C@@H](CC1CCCCC1)C(=O)O; dCha = N[C@H](CC1CCCCC1)C(=O)O; dNle = CCCC[C@@H](N)C(=O)O; Carboxymethyl = O=C(O)C*; Orn = NCCC[C@H](N)C(=O)O; Aun = NCCCCCCCCCCC(=O)O; Dab = NCC[C@H](N)C(=O)O; Dap = NC[C@H](N)C(=O)O; AEEA = NCCOCCOCC(=O)O

This assay deals with T1, PD-1/PD-L1 interaction (PE-labeled human PD-L1-Ig binding to Jurkat cell line over-expressing human PD-1) (Homo sapiens, UniProt Q15116).
T1 construct: expressed in transfected cells; host or cells: Jurkat
T1 sequence (Q15116 25-288): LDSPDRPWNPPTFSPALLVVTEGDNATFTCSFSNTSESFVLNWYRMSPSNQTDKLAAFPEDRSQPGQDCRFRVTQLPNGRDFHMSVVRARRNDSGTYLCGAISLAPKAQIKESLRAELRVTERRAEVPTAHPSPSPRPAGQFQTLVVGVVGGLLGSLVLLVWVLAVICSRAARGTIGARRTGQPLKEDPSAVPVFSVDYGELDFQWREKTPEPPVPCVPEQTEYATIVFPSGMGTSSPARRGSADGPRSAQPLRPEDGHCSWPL
The assay can be described thus: Jurkat-PD-1 Cell Binding High-Content Screening Assay (CBA). It counts as cell-based. The following applies: Jurkat cell line over-expressing human PD-1; PE-labeled PD-L1-Ig 20 nM final; read-out: Jurkat hPD1-PDL1 IC50. In outline: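 Jurkat cells stably over-expressing human PD-1 were seeded in DMEM with 10% fetal calf serum and pre-incubated with compound for 2 h at 37° C. PE-labeled human PD-L1-Ig was then added at 20 nM final for 1 hour, after which cells were fixed with paraformaldehyde, Hoechst-stained and imaged by high-content microscopy.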
In general, IC50 refers to the midpoint of a concentration-inhibition curve. As for `Cc1cccc(C[C@@H]2NC(=O)[C@H](CC(=O)O)NC(=O)[C@H](Cc3ccc(OCC(=O)O)cc3)NC(=O)[C@H](CN)NC(=O)CSC[C@@H](C(=O)N[C@@H](CCN)C(=O)NCCOCCOCC(=O)NCCCCCCCCCCC(=O)O)NC(=O)[C@H](CN)NC(=O)[C@H](C(C)C)NC(=O)[C@H](CC3CCCCC3)NC(=O)[C@H](CCN)NC(=O)[C@@H](CC3CCCCC3)NC(=O)[C@H](CCCN)NC(=O)[C@H](C(C)C)NC(=O)[C@H](Cc3ccc(-c4ccccc4)cc3)NC(=O)[C@H](C(C)C)NC2=O)c1` [Compound 2684] ({CH2CO}-[Dap]Y(Carboxymethyl)D[Phe(3-Me)]V[Bip]V[Orn][dCha][Dab][Cha]V[Dap]C[Dab][AEEA][Aun]-OH; thioether N-14), the IC50 is 36.3 nM. Next, `CCCC[C@H]1NC(=O)[C@H](CCCN)NC(=O)[C@H](C(C)C)NC(=O)[C@H](Cc2ccc(-c3ccccc3)cc2)NC(=O)[C@H](C(C)C)NC(=O)[C@H](Cc2cccc(C)c2)NC(=O)[C@H](CC(=O)O)NC(=O)[C@H](Cc2ccc(OCC(=O)O)cc2)NC(=O)[C@H](CN)NC(=O)CSC[C@@H](C(=O)N[C@@H](CCCCN)C(=O)NCCCCCCCCCCC(=O)O)NC(=O)[C@H](CN)NC(=O)[C@H](C(C)C)NC(=O)[C@H](CC2CCCCC2)NC(=O)[C@H](CCN)NC1=O` [Compound 2685] ({CH2CO}-[Dap]Y(Carboxymethyl)D[Phe(3-Me)]V[Bip]V[Orn][dNle][Dab][Cha]V[Dap]CK[Aun]-OH; thioether N-14): 11.6 nM; `Cc1cccc(C[C@@H]2NC(=O)[C@H](CC(=O)O)NC(=O)[C@H](Cc3ccc(OCC(=O)O)cc3)NC(=O)[C@H](CN)NC(=O)CSC[C@@H](C(=O)N[C@@H](CCCCN)C(=O)NCCCCCCCCCCC(=O)O)NC(=O)[C@H](CN)NC(=O)[C@H](C(C)C)NC(=O)[C@H](CC3CCCCC3)NC(=O)[C@H](CCN)NC(=O)[C@@H](CC3CCCCC3)NC(=O)[C@H](CCCN)NC(=O)[C@H](C(C)C)NC(=O)[C@H](Cc3ccc(-c4ccccc4)cc3)NC(=O)[C@H](C(C)C)NC2=O)c1` [Compound 2686] ({CH2CO}-[Dap]Y(Carboxymethyl)D[Phe(3-Me)]V[Bip]V[Orn][dCha][Dab][Cha]V[Dap]CK[Aun]-OH; thioether N-14): 16.1 nM; `CCCC[C@H]1NC(=O)[C@H](CCCN)NC(=O)[C@H](C(C)C)NC(=O)[C@H](Cc2ccc(-c3ccccc3)cc2)NC(=O)[C@H](C(C)C)NC(=O)[C@H](Cc2cccc(C)c2)NC(=O)[C@H](CC(=O)O)NC(=O)[C@H](Cc2ccc(OCC(=O)O)cc2)NC(=O)[C@H](CN)NC(=O)CSC[C@@H](C(=O)N[C@@H](CCCCN)C(=O)NCCCCCCCCCCC(=O)O)NC(=O)[C@H](CCCN)NC(=O)[C@H](C(C)C)NC(=O)[C@H](CC2CCCCC2)NC(=O)[C@H](CCN)NC1=O` [Compound 2687] ({CH2CO}-[Dap]Y(Carboxymethyl)D[Phe(3-Me)]V[Bip]V[Orn][dNle][Dab][Cha]V[Orn]CK[Aun]-OH; thioether N-14): 10 nM.

With `Cc1cccc(C[C@@H]2NC(=O)[C@H](CC(=O)O)NC(=O)[C@H](Cc3ccc(OCC(=O)O)cc3)NC(=O)[C@H](CN)NC(=O)CSC[C@@H](C(=O)N[C@@H](CCCCN)C(=O)NCCCCCCCCCCC(=O)O)NC(=O)[C@H](CCCN)NC(=O)[C@H](C(C)C)NC(=O)[C@H](CC3CCCCC3)NC(=O)[C@H](CCN)NC(=O)[C@@H](CC3CCCCC3)NC(=O)[C@H](CCCN)NC(=O)[C@H](C(C)C)NC(=O)[C@H](Cc3ccc(-c4ccccc4)cc3)NC(=O)[C@H](C(C)C)NC2=O)c1` [Compound 2688] ({CH2CO}-[Dap]Y(Carboxymethyl)D[Phe(3-Me)]V[Bip]V[Orn][dCha][Dab][Cha]V[Orn]CK[Aun]-OH; thioether N-14), the IC50 came to 15.6 nM.
